According to patent US20070275936A1, “Formulations and Treatment Methods” (priority 1998, published 2007):

Assays:
[1] = system: CD4+ memory T cell 1 (MT1) and memory T cell 2 (MT2) cells; assay: MT1:MT2 memory T cell ratio in patients after 5 day i.m. BrEA; assay type: in vivo, human
Description: In a separate clinical trial using 100 mg of BrEA delivered to patients once per day for 5 consecutive days by intramuscular injection, several patients were evaluated for changes in the ratio of CD4^+ memory T cell 1 cells (intracellular IFNγ^+ CD45RA^− CD62L^− CD11a^bright) or MT1 cells to memory T cell 2 cells (intracellular IL-4^+ CD45RA^− CD62L^+ CD11a^dim) or MT2 cells. MT1 cells mediate or facilitate Th1 immune responses and MT2 cells mediate or facilitate Th2 immune responses. An increase in the MT1:MT2 ratio indicates an enhanced Th1 immune response or immune status. See, e.g., D. K. Mitra et al., International Immunology 1999 11:1801-1810. […] The maximum observed increase was about 700% in one patient at 10 days after the last dose of BrEA was administered. The increase usually persisted for more than 10 days after the last dose of BrEA was administered.

Plasmodium berghei = assay: Lewis rat in vivo parasitemia study; details: Lewis rats
NK cell = NK cell counts in HIV/HCV infected patient dosed I.V. with BrEA; assay type: in vivo, human; details: predosing 28
Description: A patient infected with HIV and HCV was dosed I.V. with BrEA for 3 consecutive days using a formulation that contained 20 mg/mL BrEA in 45% w/v hydroxypropyl-β-cyclodextrin and saline. Four mL of the formulation (80 mg BrEA) was administered to the patient every 4 hours during the 3 day treatment period. The patient's predosing HCV level was 6.5 Log10 as measured by PCR and the HCV level was 6.2 Log10 on the first day of dosing, 5.5 Log10 on the 3rd day of dosing and 4.9 Log10 three days after the last dose was administered. HIV RNA levels as measured by PCR was 5.2 Log10 (predosing), 5.8 Log10 (first day), 5.9 Log10 (third day) and 5.4 Log10 (day 6). The NK cell counts (cells/mm^3) were 28, 41 and 38 at predosing, day 0 and day 3.

[2] = Oral administration of 14C BrEA to rats, preliminary pharmacokinetics; assay type: in vivo; details: 14C BrEA solubilized in different excipients
Description: Nonclinical studies were conducted using an oral and a subcutaneous formulation of BrEA. Rats were orally administered ^14C BrEA solubilized in different excipients to determine the levels of drug in blood and various tissues.

Wistar rats = assay: DNBS induced distal colitis in rats; assay type: in vivo
Description: Groups of 3 male Wistar rats (180±20 grams) fasted for 24 hours before 2,4-dinitrobenzene sulfonic acid (DNBS) or saline challenge were used. Distal colitis was induced by intra-colonic instillation of 0.5 mL of an ethanolic solution of DNBS (30 mg in 0.5 mL of a 30% ethanol in saline solution) after which 2 mL of air was injected through the cannula to ensure that the solution remained in the colon. The volume used was 0.1 mL per injection of 2 and 20 mg/mL of 7-oxodehydroepiandrosterone in a liquid formulation, was administered by subcutaneous injection once a day for 6 days. The formulation contained […] of 7-oxodehydroepiandrosterone in a non-aqueous suspension that contained 2% benzyl alcohol w/v, 0.1% Brij 96 w/v and equal volumes of PEG 300 and propylene glycol. Concentrations of 2 mg/mL and 20 mg/mL were obtained by diluting the […] with vehicle that lacked the active substance.
The first dose was given 30 minutes after DNBS challenge. Sulfasalazine (30 mg/mL in 2% Tween 80 in distilled water) was administered orally (PO) once a day (10 mL/kg/day) for 7 days, the first two doses beginning 24 hours and 2 hours before DNBS challenge. The presence of diarrhea was recorded daily by examining the anal area. Animals were fasted for 24 hours prior to being sacrificed. Animals were sacrificed on day 7 or day 8 and their colons were removed and weighed. Before removal of the colon, signs of adhesion between the colon and other organs were recorded. Also, the presence of ulcerations was noted after weighing of each colon. The “net” change of colon-to-body weight (BW) ratio was normalized relative to saline-challenged baseline group. A 30% decrease in “net” colon-to-body weight ratio was considered significant.
A total of five studies were conducted. Data from the first study are reported in this report. The 7-oxodehydroepiandrosterone at 2 and 20 mg/mL, decreased the net colon-to-body weight ratio by 19 and by 14% relative to vehicle-treated group, respectively. […] The formula 1 compound 3β,7β,17β-trihydroxyandrost-5-ene (AET) was administered by subcutaneous injections of 2 and 20 mg/day for 5 or 6 days, with the first dose injected 30 minutes post-DNBS challenge. The AET formulation was the same as the 7-oxodehydroepiandrosterone formulation, except that AET replaced 7-oxodehydroepiandrosterone. AET decreased the net colon-to-body weight ratio by 15% and 21% relative to controls (see the table below). Animals treated with AET (20 mg/kg) had no diarrhea. […] The same formulations containing BrEA hemihydrate (100 mg/mL) or dehydroepiandrosterone (20 mg/mL) decreased the net colon-to-body weight ratio by 21 and 3%, respectively relative to controls.

SMILES	tested patients showing a transient increase in the MT1:MT2 ratio ([1]; 100 mg i.m. once per day for 5 consecutive days)	maximum observed increase in the MT1:MT2 ratio ([1]; one patient, 10 days after the last dose)	% RBC parasitemia (Plasmodium berghei; Day 4, high dose 60 mg/kg i.v. days 0-3, saline control 16%) [%]	% RBC parasitemia (Plasmodium berghei; Day 4, low dose 30 mg/kg i.v. days 0-3, saline control 16%) [%]	% RBC parasitemia (Plasmodium berghei; Day 11, high dose 60 mg/kg i.v. days 0-3, saline control 36%) [%]	% RBC parasitemia (Plasmodium berghei; Day 11, low dose 30 mg/kg i.v. days 0-3, saline control 36%) [%]	NK cell counts (NK cell; day 0) [cells/mm^3]	NK cell counts (NK cell; day 3) [cells/mm^3]	excreted in the feces [2]	animals with severe acute inflammation (Wistar rats; 7 days after DNBS challenge, 3 of 10 in immunosteroid vehicle controls) [animals]	animals with moderate acute inflammation (Wistar rats; 7 days after DNBS challenge, 5 of 10 in immunosteroid vehicle controls) [animals]	animals with severe chronic inflammation (Wistar rats; 14 days after DNBS challenge, 8 of 10 in immunosteroid vehicle controls) [animals]	decrease of net colon-to-body weight ratio relative to vehicle/controls (Wistar rats; DNBS rats, 20 mg/mL formulation s.c.) [%]	animals with severe ulceration (Wistar rats; day 7 (acute inflammation) after DNBS challenge, vehicle control 8 of 10)	animals with severe ulceration (Wistar rats; day 14 (chronic inflammation) after DNBS challenge, vehicle controls 5 of 10)
C[C@]12CC[C@H](O)C[C@@H]1CC[C@@H]1[C@@H]2CC[C@]2(C)C(=O)[C@H](Br)C[C@@H]12 [BrEA, 16α-bromo-3β-hydroxy-5α-androstane-17-one]	7/7	about 700%	7	9	11	12	41	38	at least 80%	–	–	–	–	–	–
C[C@]12CC[C@H](O)CC1=CC[C@@H]1[C@@H]2CC[C@]2(C)C(=O)CC[C@@H]12 [DHEA, dehydroepiandrosterone, reference compound]	–	–	–	–	–	–	–	–	–	10	0	3	3	10 of 10	0 of 10
